The record followed here is patent publication US9650348B2, “Triazines with suitable spacers for treatment and/or prevention of HIV infections” (Universiteit Antwerpen, priority 2012, dated 2017).

Read-outs that look alike come from different tables or passages of the source.

The nature of data set [1]: in vitro. It counts as cell-based. The conditions noted are these: human, Cytotoxicity CC50 TZM-bI. The text has this: The Water Soluble Tetrazolium-1 (WST-1) Cell Proliferation Assay is a colorimetric assay for the measurement of cell proliferation and viability. The assay is based on the cleavage of the tetrazolium salt WST-1 (4-[3-(4-iodophenyl)-2-(4-nitrophenyl)-2H-5-tetrazolio]-1,3-benzene disulfonate) to a formazan dye by a complex cellular mechanism. This bioreduction is largely dependent on the glycolytic production of NAD(P)H in viable cells. Therefore, the amount of formazan dye formed correlates directly to the number of viable cells in the culture, and can be quantified by measuring the absorbance at 450 nm in a multiwell plate reader. The greater the number of viable cells, the greater the amount of formazan dye produced following the addition of WST-1. Cytotoxicity of each compound was evaluated using this WST-1 viability assay, according to the manufacturer's instructions (Roche, Vilvoorde, Belgium).
Briefly, ten thousand TZM-bl cells were seeded in a 96-well plate and cultured for 2 days in the presence of a serial dilution of compound. After this 48 h exposure, Cell Proliferation Reagent, WST-1, was added and absorbance at 450 nm was quantified after 90 min using a microplate reader (BioRad, Tokio, Japan). Each compound was tested in three replicate wells and in at least two independent experiments.
(§1) The target compounds are evaluated for their anti-HIV-1 activity and cytotoxicity. In a primary screen, the anti-HIV activity against the laboratory strain Ba-L and against a primary subtype C isolate was determined in the TZM-bl cell line. Cellular toxicity on TZM-bl cells was evaluated using WST-1. […] In addition, the activity against NNRTI-resistant viruses (V106A, Y181C, L100I+K103N, L100I+E138K+T369I and K101E+K103N+V108VI+V179M+Y181C+E138Q) was tested. Diarylpyrimidines (DAPY) TMC120, TMC125 and TMC278 were used as reference compounds.

Data set [2] relates to HIV-1 Ba-L. Briefly: Antiviral activity in peripheral blood mononuclear cells (PBMC), Ba-L. It counts as cell-based. The conditions noted are these: Human immunodeficiency virus 1, BAL, Ba-L wild type, read-out: Antiviral activity-wild type viruses EC50 PBMC Ba-L.
Data set [3] has as its system HIV-1 BaL. Nature of the data set: TZM-bl antiviral assay, wild type HIV-1 Ba-L. It counts as cell-based. The conditions noted are these: Human immunodeficiency virus 1, BAL, read-out: Antiviral activity-wild type viruses EC50 TZM-bI Ba-L. As for the experimental part:
(§2) The JC53-BL cell line, also known as the TZM-bl cell line (NIH AIDS Research and Reference Reagent Program, Germantown, USA), was used for the evaluation of anti-HIV activity. TZM-bl cells were cultured in Dulbecco's […] (DMEM) (Lonza) containing 10% heat-inactivated FBS and 50 μg gentamycin/mL at 37° C. in a humidified 5% CO2, 95% air environment. Twice a week the cells were treated with 0.25% trypsin-1 mM EDTA (Lonza) for 10 minutes. The resulting cell suspension was washed with an equivalent amount of TZM-bl medium and subsequently seeded in a T75 culture flask (Greiner Bio-One, Germany) at 10^6 cells in 20 mL medium.
(§3) The antiviral activity of the newly designed compounds was measured by pre-incubating ten thousand TZM-bl cells (at 10^5 cells/mL in culture medium supplemented with 30 μg/mL DEAE dextran) in a 96-well plate for 30 minutes at 37° C., 5% CO2 in the presence or absence of serial dilutions of the respective compound. Subsequently, 200 TCID50 of HIV-1 BaL was added to each well and cultures were incubated for 48 hours before quantifying luciferase activity, using a TriStar LB941 luminometer (Berthold Technologies GmbH & Co. KG, Bad Wildbad, Germany). Each condition was evaluated in triplicate wells and in at least two independent experiments. The antiviral activity of the compound was expressed as the percentage of viral inhibition compared to the untreated controls and subsequently plotted against the compound concentration.
as §1

Data set [4] deals with VI829 L100I+E138K+T369I. Briefly: Antiviral activity, NNRTI-resistant virus L100I+E138K+T369I. It counts as cell-based, HIV-1. The conditions noted are these: VI829, ** = L1001 + E138K + T3691. As for the experimental part:
(§4) The target compounds are evaluated for their anti-HIV-1 activity and cytotoxicity. In a primary screen, the anti-HIV activity against the laboratory strain Ba-L and against a primary subtype C isolate was determined in the TZM-bl cell line. Cellular toxicity on TZM-bl cells was evaluated using WST-1. Based on the primary screening results, the target compound was further evaluated for anti-HIV activity in different primary cells, including peripheral blood mononuclear cells, dendritic cells and CD4+ T lymphocytes. In addition, the activity against NNRTI-resistant viruses (V106A, Y181C, L100I+K103N, L100I+E138K+T369I and K101E+K103N+V108VI+V179M+Y181C+E138Q) was tested. Diarylpyrimidines (DAPY) TMC120, TMC125 and TMC278 were used as reference compounds.

The test system of data set [5] is Ba-L K101E + K103N + V108VI + V179M + Y181C + E138Q. Nature of the data set: Antiviral activity, NNRTI-resistant virus K101E+K103N+V108VI+V179M+Y181C+E138Q. It counts as cell-based, HIV-1. The conditions noted are these: for FC (*): Ba-L, * = K101E + K103N + V108VI + V179M + Y181C + E138Q; for EC50: Human immunodeficiency virus 1, BAL, read-out: Antiviral activity-NNRTI-resistant viruses EC50 Ba-L *. As to the method:
as §4

Data set [6] has as its system VI829 Y181C. Nature of the data set: Antiviral activity, NNRTI-resistant virus Y181C. The conditions noted are these: for EC50: Human immunodeficiency virus 1, read-out: Antiviral activity-NNRTI-resistant viruses EC50 VI829 Y181C; for FC (Y181C): VI829 Y181C. It counts as cell-based, HIV-1. As to the method:
as §1

Data set [7] has as its system VI829 L100I+K103N. Nature of the data set: Antiviral activity, NNRTI-resistant virus L100I+K103N. It counts as cell-based, HIV-1. The conditions noted are these: for EC50: Human immunodeficiency virus 1, read-out: Antiviral activity-NNRTI-resistant viruses EC50 VI829 L100I+K103N; for FC (L100I+K103N): VI829 L100I+K103N. As for the experimental part: as §1
For data set [8], the system named is Ba-L V106A. Nature of the data set: Antiviral activity, NNRTI-resistant virus V106A. It counts as cell-based, HIV-1. The conditions noted are these: for FC (V106A): Ba-L V106A; for EC50: Human immunodeficiency virus 1, BAL, read-out: Antiviral activity-NNRTI-resistant viruses EC50 Ba-L V106A. As to the method: as §1
Data set [9] concerns VI829. Briefly: TZM-bl antiviral assay, wild type VI829 (primary subtype C isolate). It counts as cell-based, HIV-1. The conditions noted are these: read-out: Antiviral activity-wild type viruses EC50 TZM-bI VI829. As to the method: as §2, §3, §1
In data set [10] the test system is HIV-1 Ba-L. Briefly: Antiviral activity in dendritic cells / CD4+ T lymphocytes (DC/T4), Ba-L. It counts as cell-based. The conditions noted are these: Human immunodeficiency virus 1, BAL; DC/T4, Ba-L wild type; read-out: Antiviral activity-wild type viruses EC50 DC/T4 Ba-L.
The nature of data set [11]: Partition coefficient (Log D), octanol/PBS. It counts as physicochemical. The conditions noted are these: octanol/PBS pH 7.4. As for the experimental part: 10 mM stock solution (in DMSO) was prepared.
200 μM solution (in DMSO) was prepared from 10 mM stock solution.
A set of 5-10 dilutions (in MeOH) of each compound were prepared from 200 μM solution to give final test concentrations between 1 nm and 2 μM.
MS tuning was done for each compound to find the daughter peaks using 500 nm solution.
Calibration curve was made for each compound to evaluate the linearity of our method.
Octanol was first saturated with PBS and PBS was first saturated with octanol
20 μl of a 10 mM DMSO stock solution was added to 990 μl of PBS (pH 7.4) and then 990 μl of octanol was added. The experiment was done in duplicate. After two hours of shaking at 37° C. and keeping at room temperature for 30 minutes the two layers were separated. After separation, octanol layer was diluted further with MeOH and compound was quantified in both layers by UPLC (waters). The samples were analysed in triplicate.
Where: • ConcINITIAL=Concentration of compound in the initial aqueous solution (PBS) • ConcFINAL=Concentration of compound in final aqueous phase (PBS) • Vaq=Volume of aqueous (PBS) • Voct=Volume of octanol

[12] abbreviates: Human immunodeficiency virus 1, TZM-bl cells, VI829 wild type.

Usually CC50 stands for the concentration giving 50% cytotoxicity. High values mean better tolerance by the cells, low ones harm at low concentration. Consider `Cc1cc(C=CC#N)cc(C)c1Nc1nc(N)nc(Nc2ccc(C#N)cc2)n1` [T1, 4-(4-amino-6-(4-(2-cyanovinyl)-2,6-dimethylphenylamino)-1,3,5-triazin-2-ylamino)benzonitrile], for which the CC50 at 48 h in data set [1] was found to be 34600 nM. The EC50 amounted to 1.8 nM in data set [2]; 1.3 nM in data set [3] (TZM-bl cells, Ba-L wild type); 22.8 nM in data set [5]; 4 nM in data set [6]; 15 nM in [7]; 1.7 nM in data set [8]. Also, the EC50 in data set [9] (setting [12]) is 1.1 nM; in [10], 0.7 nM. Besides, the “FC (**)” value in data set [4] stood at 210. Further, the “FC (*)” value in data set [5] was 18. In addition, the “FC (Y181C)” value in data set [6] turned out to be 3. The “FC (L100I+K103N)” value in [7] was 10. In addition, in [8], the “FC (V106A)” value is 1.

As usually defined, the logD is the decadic logarithm of the distribution of all forms, ionised or not, between an organic phase and buffer at a given pH. On to `Cc1cc(/C=C/C#N)cc(C)c1Nc1nc(N)nc(Nc2ccc(C#N)cc2)n1` [T2, (E)-4-(4-amino-6-(4-(2-cyanovinyl)-2,6-dimethylphenylamino)-1,3,5-triazin-2-ylamino)benzonitrile], for which, in data set [1], the CC50 at 48 h was found to be 24500 nM. Also, the EC50 is 5.3 nM in data set [2]; 1.3 nM in [3] (TZM-bl cells, Ba-L wild type); 23 nM in data set [5]; 2.6 nM in [6]; 6.8 nM in data set [7]; 1.9 nM in data set [8]. Moreover, the EC50 in data set [9] (setting [12]) stood at 1.3 nM; in data set [10] it was 0.51 nM. For the same molecule, the “FC (**)” value in data set [4] was 68. The “FC (*)” value in [5] amounted to 18. Also, in data set [6], the “FC (Y181C)” value is 2. The “FC (L100I+K103N)” value in data set [7] is given as 5.2. Besides, in data set [8], the “FC (V106A)” value turned out to be 1. The log distribution coefficient (logD) at 2 h in [11] is 3.8.

Regarding `Cc1cc(/C=C\C#N)cc(C)c1Nc1nc(N)nc(Nc2ccc(C#N)cc2)n1` [T3, (Z)-4-(4-amino-6-(4-(2-cyanovinyl)-2,6-dimethylphenylamino)-1,3,5-triazin-2-ylamino)benzonitrile], the midpoint of cytotoxicity in data set [1], the CC50 at 48 h, lay at 30800 nM. Further, the EC50 in data set [2] worked out at 6.1 nM; in [3] (TZM-bl cells, Ba-L wild type), 1.1 nM; in data set [5], 236 nM; in data set [6], 12 nM; in data set [7], 123 nM; in data set [8], 5.2 nM. The values for the EC50 in data set [9] (setting [12]) and in [10] were 1.1 nM and 0.31 nM, respectively. The “FC (**)” value in data set [4] was determined as 1266. For the same molecule, the “FC (*)” value in [5] turned out to be 214. Further, the “FC (Y181C)” value in data set [6] amounted to 11. Also, the “FC (L100I+K103N)” value in [7] came to 112. Moreover, in data set [8], the “FC (V106A)” value is listed as 5.

In turn, `Cc1cc(C=CC#N)cc(C)c1Nc1nc(Nc2ccc(C#N)cc2)nc(NC(C)C)n1` [T6, 4-((4-((4-(2-cyanovinyl)-2,6-dimethylphenyl)amino)-6-(isopropylamino)-1,3,5-triazin-2-yl)amino)benzonitrile] had a CC50 at 48 h in data set [1] of 24700 nM. In addition, the EC50 is 14 nM in [2]; 5 nM in [3] (TZM-bl cells, Ba-L wild type); 424 nM in data set [5]; 45 nM in data set [6]; 184 nM in data set [7]; 30 nM in data set [8]. Besides, the EC50 is 4.3 nM in data set [9] (setting [12]) and 1.4 nM in data set [10]. In addition, in data set [4], the “FC (**)” value was 225. Moreover, the “FC (*)” value in data set [5] is 85. Further, in data set [6], the “FC (Y181C)” value was determined as 10. Also, the “FC (L100I+K103N)” value in data set [7] came out at 43. Besides, in data set [8], the “FC (V106A)” value worked out at 6.

For the molecule `Cc1cc(C#N)cc(C)c1Oc1nc(Nc2ccc(C#N)cc2)nc(N)c1Br` [TMC125, Etravirine, reference compound], the EC50 in data set [2] was determined as 5.9 nM; in [3] (TZM-bl), 1.5 nM; in data set [5], 76 nM; in data set [6] it was 7.6 nM; in data set [7] it was 14 nM; in [8], 1.6 nM. Further, the EC50 in data set [9] (Human immunodeficiency virus 1, TZM-bl) amounted to 1.5 nM; in data set [10] it was 1.8 nM. Besides, the “FC (**)” value in [4] is 62. The “FC (*)” value in data set [5] was determined as 51. In [6], the “FC (Y181C)” value was 5. Further, the “FC (L100I+K103N)” value in data set [7] was found to be 9. Also, the “FC (V106A)” value in data set [8] was found to be 1.
